Experiment [1] has as its target T1, Inhibitor of nuclear factor kappa-B kinase subunit beta (Homo sapiens) (UniProt O14920).
T1 sequence (whole entry): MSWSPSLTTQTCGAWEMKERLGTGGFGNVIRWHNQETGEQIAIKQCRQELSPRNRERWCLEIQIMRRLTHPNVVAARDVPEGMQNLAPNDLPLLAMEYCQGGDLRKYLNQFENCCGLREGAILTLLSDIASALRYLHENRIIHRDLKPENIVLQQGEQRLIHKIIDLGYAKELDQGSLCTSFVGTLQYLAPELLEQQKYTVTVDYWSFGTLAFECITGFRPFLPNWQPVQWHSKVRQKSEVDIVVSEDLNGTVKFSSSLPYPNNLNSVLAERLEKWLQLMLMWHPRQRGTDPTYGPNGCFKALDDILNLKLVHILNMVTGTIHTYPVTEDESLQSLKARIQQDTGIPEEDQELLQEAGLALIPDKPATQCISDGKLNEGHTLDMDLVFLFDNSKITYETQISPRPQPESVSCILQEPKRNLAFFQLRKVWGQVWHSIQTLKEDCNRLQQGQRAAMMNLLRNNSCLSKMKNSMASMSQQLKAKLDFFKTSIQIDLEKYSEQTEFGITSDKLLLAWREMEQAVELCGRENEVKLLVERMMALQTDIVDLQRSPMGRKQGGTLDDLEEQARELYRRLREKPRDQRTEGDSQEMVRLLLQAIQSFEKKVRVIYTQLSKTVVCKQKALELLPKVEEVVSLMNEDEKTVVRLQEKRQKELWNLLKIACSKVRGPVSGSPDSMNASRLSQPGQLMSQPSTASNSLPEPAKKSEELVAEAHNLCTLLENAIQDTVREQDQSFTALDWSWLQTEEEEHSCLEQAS
The experiment in a line: Percentage IKK-beta activity remaining in the presence of 3uM inhibitor.

Experiment [2] deals with Calcium/calmodulin-dependent protein kinase type 1 (Homo sapiens) (UniProt Q14012). The experiment in a line: Percentage CaMK1 activity remaining in the presence of 3uM inhibitor.
Sequence of Calcium/calmodulin-dependent protein kinase type 1 (Homo sapiens) (Q14012 whole entry, looked up): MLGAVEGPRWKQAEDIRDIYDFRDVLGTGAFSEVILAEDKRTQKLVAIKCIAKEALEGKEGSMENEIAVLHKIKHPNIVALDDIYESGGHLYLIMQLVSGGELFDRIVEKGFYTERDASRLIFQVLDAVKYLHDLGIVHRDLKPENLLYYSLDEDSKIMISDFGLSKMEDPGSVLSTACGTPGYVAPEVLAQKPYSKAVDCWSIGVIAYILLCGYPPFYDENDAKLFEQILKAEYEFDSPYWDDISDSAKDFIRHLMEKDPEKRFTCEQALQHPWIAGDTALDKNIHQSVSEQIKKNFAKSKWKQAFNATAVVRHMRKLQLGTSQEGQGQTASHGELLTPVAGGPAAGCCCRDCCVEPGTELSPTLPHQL
Experiment [3] deals with Casein kinase II (Homo sapiens) (UniProt P67870+P68400+P19784). The experiment in a line: Percentage CK2 activity remaining in the presence of 3uM inhibitor. It is filed as protein-complex assay.
For experiment [4], the target named is MAP/microtubule affinity-regulating kinase 3 (Homo sapiens) (UniProt P27448). The experiment in a line: Percentage MARK3 activity remaining in the presence of 3uM inhibitor.
Sequence of MAP/microtubule affinity-regulating kinase 3 (Homo sapiens) (P27448 whole entry, looked up): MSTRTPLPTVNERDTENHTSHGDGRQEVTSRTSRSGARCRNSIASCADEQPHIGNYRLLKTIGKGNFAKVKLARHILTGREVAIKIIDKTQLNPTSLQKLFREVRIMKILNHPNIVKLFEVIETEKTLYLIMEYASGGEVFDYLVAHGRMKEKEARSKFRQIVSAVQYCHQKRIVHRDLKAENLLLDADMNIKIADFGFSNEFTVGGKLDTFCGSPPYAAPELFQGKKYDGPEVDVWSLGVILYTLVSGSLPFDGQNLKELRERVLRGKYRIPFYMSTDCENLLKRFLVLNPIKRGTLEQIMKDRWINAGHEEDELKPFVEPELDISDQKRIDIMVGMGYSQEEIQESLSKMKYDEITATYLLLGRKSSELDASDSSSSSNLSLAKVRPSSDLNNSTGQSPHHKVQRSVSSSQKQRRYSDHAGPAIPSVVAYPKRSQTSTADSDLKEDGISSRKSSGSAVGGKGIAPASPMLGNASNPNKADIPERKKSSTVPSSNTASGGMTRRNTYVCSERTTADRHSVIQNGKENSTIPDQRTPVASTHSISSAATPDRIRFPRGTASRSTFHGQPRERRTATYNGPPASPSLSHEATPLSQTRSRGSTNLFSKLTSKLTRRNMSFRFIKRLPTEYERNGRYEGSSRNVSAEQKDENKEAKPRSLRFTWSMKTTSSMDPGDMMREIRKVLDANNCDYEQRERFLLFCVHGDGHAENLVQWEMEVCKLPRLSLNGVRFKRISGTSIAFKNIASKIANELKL
Experiment [5] deals with Glycogen synthase kinase-3 beta (Homo sapiens, UniProt P49841). The experiment in a line: Percentage GSK3-beta activity remaining in the presence of 3uM inhibitor.
Sequence of Glycogen synthase kinase-3 beta (P49841 whole entry, looked up): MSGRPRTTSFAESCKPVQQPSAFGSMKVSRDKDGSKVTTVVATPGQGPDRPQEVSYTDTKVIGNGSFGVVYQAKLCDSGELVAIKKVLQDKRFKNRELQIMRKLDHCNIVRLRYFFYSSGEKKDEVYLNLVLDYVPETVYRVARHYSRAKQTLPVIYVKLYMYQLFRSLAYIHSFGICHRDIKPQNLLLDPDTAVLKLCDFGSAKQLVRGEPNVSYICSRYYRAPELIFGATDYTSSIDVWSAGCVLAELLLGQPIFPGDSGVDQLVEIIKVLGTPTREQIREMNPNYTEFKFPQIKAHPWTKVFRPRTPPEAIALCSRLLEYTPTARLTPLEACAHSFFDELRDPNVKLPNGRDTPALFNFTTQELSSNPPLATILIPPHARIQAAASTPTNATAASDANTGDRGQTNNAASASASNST
Experiment [6] deals with MAP kinase-interacting serine/threonine-protein kinase 1 (Homo sapiens) (UniProt Q9BUB5). The experiment in a line: Percentage MNK1 activity remaining in the presence of 3uM inhibitor. The note with it: filed as antagonist.
Sequence of MAP kinase-interacting serine/threonine-protein kinase 1 (Homo sapiens) (Q9BUB5 whole entry, looked up): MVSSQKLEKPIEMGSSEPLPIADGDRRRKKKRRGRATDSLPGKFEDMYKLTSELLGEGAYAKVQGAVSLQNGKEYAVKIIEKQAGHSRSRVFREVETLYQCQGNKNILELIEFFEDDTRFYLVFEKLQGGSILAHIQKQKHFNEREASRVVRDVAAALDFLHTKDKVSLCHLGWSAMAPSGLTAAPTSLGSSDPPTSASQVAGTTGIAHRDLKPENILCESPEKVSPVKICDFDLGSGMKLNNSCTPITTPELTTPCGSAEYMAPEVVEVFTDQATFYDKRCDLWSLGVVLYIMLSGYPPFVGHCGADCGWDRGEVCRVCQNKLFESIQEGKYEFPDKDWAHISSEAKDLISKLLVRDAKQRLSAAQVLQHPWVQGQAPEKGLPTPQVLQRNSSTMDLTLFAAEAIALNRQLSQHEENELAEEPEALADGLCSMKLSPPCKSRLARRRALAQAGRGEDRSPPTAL
Experiment [7] addresses T2, Inhibitor of nuclear factor kappa-B kinase subunit epsilon (Homo sapiens) (UniProt Q14164).
T2 sequence (whole entry): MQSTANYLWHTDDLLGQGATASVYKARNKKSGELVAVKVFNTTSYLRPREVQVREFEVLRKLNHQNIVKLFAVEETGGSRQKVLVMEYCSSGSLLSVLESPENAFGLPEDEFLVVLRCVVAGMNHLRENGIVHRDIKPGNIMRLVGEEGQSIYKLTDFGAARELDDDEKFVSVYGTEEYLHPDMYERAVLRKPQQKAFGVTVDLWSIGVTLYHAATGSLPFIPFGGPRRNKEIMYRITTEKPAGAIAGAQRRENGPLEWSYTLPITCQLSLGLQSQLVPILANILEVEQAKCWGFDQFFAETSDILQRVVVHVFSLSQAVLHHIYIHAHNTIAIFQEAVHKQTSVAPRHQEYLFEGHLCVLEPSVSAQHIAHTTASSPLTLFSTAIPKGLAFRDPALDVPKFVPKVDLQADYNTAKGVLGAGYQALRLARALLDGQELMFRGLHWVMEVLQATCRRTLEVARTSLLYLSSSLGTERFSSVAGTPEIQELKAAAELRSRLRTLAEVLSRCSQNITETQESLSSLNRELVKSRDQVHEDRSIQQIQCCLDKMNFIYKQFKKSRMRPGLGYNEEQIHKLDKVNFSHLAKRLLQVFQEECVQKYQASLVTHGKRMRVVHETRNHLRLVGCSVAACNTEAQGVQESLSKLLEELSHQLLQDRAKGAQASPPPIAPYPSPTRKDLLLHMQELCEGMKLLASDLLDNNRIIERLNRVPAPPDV
The experiment in a line: Percentage IKKepsilon activity remaining in the presence of 0.1uM inhibitor. The note with it: filed as antagonist.

Experiment [8] has as its target T3, Mitogen-activated protein kinase 15 (Homo sapiens) (UniProt Q8TD08).
T3 sequence (whole entry): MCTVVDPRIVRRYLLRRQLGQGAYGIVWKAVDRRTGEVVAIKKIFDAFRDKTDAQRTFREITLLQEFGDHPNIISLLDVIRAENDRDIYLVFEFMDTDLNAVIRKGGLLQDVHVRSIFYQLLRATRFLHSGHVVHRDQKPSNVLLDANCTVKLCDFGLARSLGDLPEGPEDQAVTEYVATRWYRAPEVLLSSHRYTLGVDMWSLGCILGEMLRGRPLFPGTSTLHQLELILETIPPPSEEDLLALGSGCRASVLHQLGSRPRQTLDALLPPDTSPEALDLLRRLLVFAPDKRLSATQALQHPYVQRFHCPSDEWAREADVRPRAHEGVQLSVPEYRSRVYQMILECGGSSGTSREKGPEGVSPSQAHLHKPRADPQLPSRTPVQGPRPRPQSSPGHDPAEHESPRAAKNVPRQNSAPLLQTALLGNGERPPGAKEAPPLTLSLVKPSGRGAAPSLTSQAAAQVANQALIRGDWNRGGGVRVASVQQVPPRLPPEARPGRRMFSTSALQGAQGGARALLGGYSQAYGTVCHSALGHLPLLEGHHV
The experiment in a line: Percentage ERK8 activity remaining in the presence of 2uM inhibitor. The note with it: filed as antagonist.

Experiment [9] is filed under the species Homo sapiens. The experiment in a line: Percentage PHK activity remaining in the presence of 2uM inhibitor.
Experiment [10] deals with T4, Mitogen-activated protein kinase 13 (Homo sapiens) (UniProt O15264).
T4 sequence (whole entry): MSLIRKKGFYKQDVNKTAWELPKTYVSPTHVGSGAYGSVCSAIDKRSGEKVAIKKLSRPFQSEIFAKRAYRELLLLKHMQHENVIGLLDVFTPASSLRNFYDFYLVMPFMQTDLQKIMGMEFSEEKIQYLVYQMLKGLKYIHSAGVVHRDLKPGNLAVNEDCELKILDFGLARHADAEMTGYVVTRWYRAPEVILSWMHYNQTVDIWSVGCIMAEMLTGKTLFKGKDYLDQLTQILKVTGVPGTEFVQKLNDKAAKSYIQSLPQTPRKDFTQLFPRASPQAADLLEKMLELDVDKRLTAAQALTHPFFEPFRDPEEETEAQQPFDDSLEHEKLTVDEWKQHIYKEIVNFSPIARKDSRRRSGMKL
The experiment in a line: Percentage p38delta activity remaining in the presence of 2uM inhibitor.

For experiment [11], the target named is Aurora kinase B (Homo sapiens, UniProt Q96GD4). The experiment in a line: Percentage Aurora B activity remaining in the presence of 2uM inhibitor.
Sequence of Aurora kinase B (Q96GD4 whole entry): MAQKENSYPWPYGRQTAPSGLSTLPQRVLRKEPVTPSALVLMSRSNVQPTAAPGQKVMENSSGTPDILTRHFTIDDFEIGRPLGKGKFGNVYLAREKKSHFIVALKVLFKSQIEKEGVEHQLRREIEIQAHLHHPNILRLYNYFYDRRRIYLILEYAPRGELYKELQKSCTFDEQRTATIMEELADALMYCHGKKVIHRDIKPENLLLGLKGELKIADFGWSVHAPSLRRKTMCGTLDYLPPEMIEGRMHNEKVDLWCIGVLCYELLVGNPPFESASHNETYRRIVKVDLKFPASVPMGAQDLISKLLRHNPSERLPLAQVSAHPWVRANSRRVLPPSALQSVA
Experiment [12] addresses Mitogen-activated protein kinase 8 (Homo sapiens, UniProt P45983). The experiment in a line: Percentage JNK1 activity remaining in the presence of 25uM inhibitor.

Sequence of Mitogen-activated protein kinase 8 (P45983 whole entry): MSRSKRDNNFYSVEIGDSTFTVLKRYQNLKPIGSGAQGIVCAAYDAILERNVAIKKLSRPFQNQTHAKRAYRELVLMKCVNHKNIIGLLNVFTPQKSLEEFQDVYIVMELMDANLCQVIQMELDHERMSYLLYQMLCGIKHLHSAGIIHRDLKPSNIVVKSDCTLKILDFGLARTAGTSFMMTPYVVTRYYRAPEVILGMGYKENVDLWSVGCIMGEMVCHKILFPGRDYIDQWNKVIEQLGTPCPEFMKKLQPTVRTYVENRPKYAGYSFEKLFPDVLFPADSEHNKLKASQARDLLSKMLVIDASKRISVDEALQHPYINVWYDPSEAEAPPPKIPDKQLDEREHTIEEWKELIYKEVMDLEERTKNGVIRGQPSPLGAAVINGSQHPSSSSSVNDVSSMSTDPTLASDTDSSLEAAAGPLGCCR

Turning to `Cc1ccc(-c2c(C(=O)CF)n(CCCO)c3ncnc(N)c23)cc1`, the Activity in [1] is 92%; in experiment [2], 77%; in experiment [3], 92%; in experiment [4] it was 80%; in experiment [5], 65%; in experiment [6], 42%.

On to `O=C(NCCCNc1nc(Nc2cccc(NC(=O)N3CCCC3)c2)ncc1I)c1cccs1`, for which, in experiment [7], the Activity was 0%.

As for `Cn1cc(C2=C(c3ccc(Cl)cc3Cl)C(=O)NC2=O)c2ccccc21`, the Activity in experiment [8] was 12%; in experiment [9], 87%; in [10] it was 81%; in [11] it was 87%.

As to `NCCNS(=O)(=O)c1ccc(Cl)c2ccncc12`, the Activity in experiment [12] was determined as 91%.

Values taken from ChEMBL document CHEMBL1150976, “The selectivity of protein kinase inhibitors: a further update” (Biochem J, 2007).
